According to PubChem BioAssay AID256 (DTP/NCI, 2004):
Several values for one entry are separate records, joined by “and”; a condition that tells them apart may be missing. Equal entries are not always repeated. Inconclusive results and toxic doses are left out. How the source made its calls: active means survival T/C of 150% or more; inactive means T/C below 125% in these data.

Test system: CD2F1 mice, L1210 leukemia ip, survival T/C
Experiment: NCI In Vivo Anticancer Drug Screen. Data for tumor model L1210 Leukemia (intraperitoneal) in CD2F1 (CDF1) mice
Settings: higher = longer survival
Outline: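 Ratio T/C, where T is the treated-group value and C the vehicle-dosed control value, from mice implanted with a transplantable tumor.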

[1] = endpoint: mean survival time, dose: 100.0 mg/kg/injection, schedule: Q01DX001 (ip), vehicle: saline with Tween-80
[2] = endpoint: mean survival time, dose: 100.0 mg/kg/injection, schedule: Q04DX003 (ip), vehicle: saline with Tween-80
[3] = endpoint: mean survival time, dose: 200.0 mg/kg/injection, schedule: Q01DX001 (ip), vehicle: saline with Tween-80
[4] = endpoint: mean survival time, dose: 200.0 mg/kg/injection, schedule: Q04DX003 (ip), vehicle: saline with Tween-80
[5] = endpoint: mean survival time, dose: 400.0 mg/kg/injection, schedule: Q01DX001 (ip), vehicle: saline with Tween-80
[6] = endpoint: mean survival time, dose: 400.0 mg/kg/injection, schedule: Q04DX003 (ip), vehicle: saline with Tween-80
[7] = endpoint: mean survival time, dose: 50.0 mg/kg/injection, schedule: Q01DX009 (ip), vehicle: saline with Tween-80
[8] = endpoint: mean survival time, dose: 100.0 mg/kg/injection, schedule: Q01DX009 (ip), vehicle: saline with Tween-80
[9] = endpoint: mean survival time, dose: 200.0 mg/kg/injection, schedule: Q01DX009 (ip), vehicle: saline with Tween-80
[10] = endpoint: mean survival time, dose: 400.0 mg/kg/injection, schedule: Q01DX009 (ip), vehicle: saline with Tween-80

Measured: T/C

Nc1ncccc1[N+](=O)[O-]
inactive: [1] 97 % of control | [2] 105 % of control | [3] 96 % of control | [4] 102 % of control | [5] 98 % of control | [6] 105 % of control

CCCCS(=O)(=O)F
inactive: endpoint: mean survival time, dose: 25.0 mg/kg/injection, schedule: Q04DX002 (ip), vehicle: saline 96 % of control | endpoint: mean survival time, dose: 50.0 mg/kg/injection, schedule: Q04DX002 (ip), vehicle: saline 101 % of control

O=[N+]([O-])c1ccc(CSC2=NCCN2)cc1
inactive: endpoint: mean survival time, dose: 100.0 mg/kg/injection, schedule: Q01DX009 (ip), vehicle: saline 106 % of control

O=c1[nH]c(-c2ccccc2)c(N=Nc2ccccc2)c(=O)[nH]1
inactive: [1] 89 % of control | [3] 96 % of control | [5] 102 % of control

COc1ccc(OC)c(C=C(C(C)=O)C(C)=O)c1
inactive: endpoint: mean survival time, dose: 12.5 mg/kg/injection, schedule: Q01DX009 (ip), vehicle: water 95 % of control | endpoint: mean survival time, dose: 25.0 mg/kg/injection, schedule: Q01DX009 (ip), vehicle: water 102 % of control | endpoint: mean survival time, dose: 50.0 mg/kg/injection, schedule: Q01DX009 (ip), vehicle: water 100 % of control | endpoint: mean survival time, dose: 100.0 mg/kg/injection, schedule: Q01DX009 (ip), vehicle: water 95 % of control | endpoint: mean survival time, dose: 200.0 mg/kg/injection, schedule: Q01DX009 (ip), vehicle: water 88 % of control

CC(=O)OC1C2CCC(C2)C1C (stereo unspecified)
inactive: [2] 95 % of control | [4] 92 % of control | [6] 92 % of control

Cc1c[nH]c(=O)n(CC(=O)C2(O)CCC3C4CCC5=CC(=O)CCC5(C)C4CCC32C)c1=O (stereo unspecified)
inactive: endpoint: mean survival time, dose: 12.5 mg/kg/injection, schedule: Q04DX003 (ip), vehicle: Klucel (hydroxypropylcellulose) (HPC) 103 % of control | endpoint: mean survival time, dose: 25.0 mg/kg/injection, schedule: Q04DX003 (ip), vehicle: Klucel (hydroxypropylcellulose) (HPC) 102 % of control | endpoint: mean survival time, dose: 50.0 mg/kg/injection, schedule: Q04DX003 (ip), vehicle: Klucel (hydroxypropylcellulose) (HPC) 102 % of control | endpoint: mean survival time, dose: 100.0 mg/kg/injection, schedule: Q04DX003 (ip), vehicle: Klucel (hydroxypropylcellulose) (HPC) 97 % of control | endpoint: mean survival time, dose: 200.0 mg/kg/injection, schedule: Q04DX003 (ip), vehicle: Klucel (hydroxypropylcellulose) (HPC) 100 % of control

O=C(O)CNCc1ccc2c(c1)OCCO2
inactive: endpoint: mean survival time, dose: 100.0 mg/kg/injection, schedule: Q01DX009 (ip), vehicle: Klucel (hydroxypropylcellulose) (HPC) 103 % of control | endpoint: mean survival time, dose: 200.0 mg/kg/injection, schedule: Q01DX009 (ip), vehicle: Klucel (hydroxypropylcellulose) (HPC) 98 % of control | endpoint: mean survival time, dose: 400.0 mg/kg/injection, schedule: Q01DX009 (ip), vehicle: Klucel (hydroxypropylcellulose) (HPC) 95 % of control

CS(=O)(=O)c1cc([N+](=O)[O-])cc([N+](=O)[O-])c1Cl
inactive: endpoint: mean survival time, dose: 2.5 mg/kg/injection, schedule: Q01DX009 (ip), vehicle: saline with Tween-80 95 % of control | endpoint: mean survival time, dose: 5.0 mg/kg/injection, schedule: Q01DX009 (ip), vehicle: saline with Tween-80 91 % of control | endpoint: mean survival time, dose: 5.0 mg/kg/injection, schedule: Q04DX003 (ip), vehicle: saline with Tween-80 97 % of control | endpoint: mean survival time, dose: 10.0 mg/kg/injection, schedule: Q01DX009 (ip), vehicle: saline with Tween-80 96 % of control | endpoint: mean survival time, dose: 10.0 mg/kg/injection, schedule: Q04DX003 (ip), vehicle: saline with Tween-80 100 % of control

O=C(O)c1cccc2[nH]c(=O)oc(=O)c12
inactive: [2] 103 % of control | [4] 95 % of control | [6] 93 % of control

CCOC(=O)/C(C#N)=C(\C)c1ccccc1
inactive: endpoint: mean survival time, dose: 37.5 mg/kg/injection, schedule: Q01DX009 (ip), vehicle: saline with Tween-80 95 % of control | endpoint: mean survival time, dose: 75.0 mg/kg/injection, schedule: Q01DX009 (ip), vehicle: saline with Tween-80 97 % of control

O=C1CCn2cccc21
inactive: endpoint: median survival time, dose: 25.0 mg/kg/injection, schedule: Q04DX002 (ip), vehicle: saline 100 % of control | endpoint: median survival time, dose: 50.0 mg/kg/injection, schedule: Q04DX002 (ip), vehicle: saline 100 % of control | endpoint: median survival time, dose: 100.0 mg/kg/injection, schedule: Q04DX002 (ip), vehicle: saline 100 % of control | endpoint: median survival time, dose: 200.0 mg/kg/injection, schedule: Q04DX002 (ip), vehicle: saline 100 % of control

Nc1nc(=O)n(C2OC(CO)C(O)C2Cl)cc1I (stereo unspecified)
inactive: endpoint: median survival time, dose: 12.5 mg/kg/injection, schedule: Q01DX005 (ip), vehicle: saline with Tween-80 97 % of control | endpoint: median survival time, dose: 25.0 mg/kg/injection, schedule: Q01DX005 (ip), vehicle: saline with Tween-80 112 % of control | endpoint: median survival time, dose: 50.0 mg/kg/injection, schedule: Q01DX005 (ip), vehicle: saline with Tween-80 104 % of control | endpoint: median survival time, dose: 100.0 mg/kg/injection, schedule: Q01DX005 (ip), vehicle: saline with Tween-80 107 % of control | endpoint: median survival time, dose: 200.0 mg/kg/injection, schedule: Q01DX005 (ip), vehicle: saline with Tween-80 104 % of control

COC(=O)C(N)CSCSCc1ccccc1 (stereo unspecified)
inactive: endpoint: mean survival time, dose: 25.0 mg/kg/injection, schedule: Q01DX005 (ip), vehicle: water 101 % of control | endpoint: mean survival time, dose: 50.0 mg/kg/injection, schedule: Q01DX005 (ip), vehicle: water 93 % of control | endpoint: mean survival time, dose: 100.0 mg/kg/injection, schedule: Q01DX005 (ip), vehicle: water 93 % of control

Cc1ccc(/C=N/NC(=O)CNC(=O)Nc2cccc(C(F)(F)F)c2)cc1
inactive: [7] 92 % of control | [8] 88 % of control | [9] 92 % of control

Cc1ccc2cc3c(ccc4ccccc43)c3c2c1CC3
inactive: [7] 93 % of control | [8] 110 % of control | [9] 97 % of control | [10] 100 % of control

ClC(Cl)c1c2c(cc3c1CCCC3)CCCC2
inactive: [8] 113 % of control | [9] 116 % of control | [10] 102 % of control

COc1cc(NCC(C)(O)CN2CCCC(C)C2C)c2ncccc2c1 (stereo unspecified)
inactive: endpoint: mean survival time, dose: 3.12 mg/kg/injection, schedule: Q01DX009 (ip), vehicle: saline 101 % of control | endpoint: mean survival time, dose: 6.25 mg/kg/injection, schedule: Q01DX009 (ip), vehicle: saline 101 % of control | endpoint: mean survival time, dose: 12.5 mg/kg/injection, schedule: Q01DX009 (ip), vehicle: saline 101 % of control | endpoint: mean survival time, dose: 25.0 mg/kg/injection, schedule: Q01DX009 (ip), vehicle: saline 103 % of control | endpoint: mean survival time, dose: 50.0 mg/kg/injection, schedule: Q01DX009 (ip), vehicle: saline 102 % of control

O=C(Nc1cccc(Cl)c1)Nc1ccccc1Cl
inactive: endpoint: mean survival time, dose: 25.0 mg/kg/injection, schedule: Q04DX003 (ip), vehicle: saline with Tween-80 93 % of control | endpoint: mean survival time, dose: 50.0 mg/kg/injection, schedule: Q04DX003 (ip), vehicle: saline with Tween-80 96 % of control | [2] 95 % of control | [4] 89 % of control | [6] 97 % of control

CC1CC(C)(C)NC(CCC2CCCCC23OCCO3)O1 (stereo unspecified)
inactive: [1] 107 % of control | [3] 105 % of control | [5] 97 % of control

COC(=O)C1CN1C1=C(C)C(=O)C2=C(C1=O)C(COC(N)=O)C1(OC)C3NC3CN21 (stereo unspecified)
inactive: endpoint: median survival time, dose: 1.5 mg/kg/injection, schedule: Q01DX001 (ip), vehicle: water 104 % of control | endpoint: median survival time, dose: 3.0 mg/kg/injection, schedule: Q01DX001 (ip), vehicle: water 103 % of control | endpoint: median survival time, dose: 6.0 mg/kg/injection, schedule: Q01DX001 (ip), vehicle: water 123 % of control | endpoint: median survival time, dose: 12.0 mg/kg/injection, schedule: Q01DX001 (ip), vehicle: water 123 % of control | endpoint: median survival time, dose: 24.0 mg/kg/injection, schedule: Q01DX001 (ip), vehicle: water 121 % of control and 124 % of control

CC(=C(C#N)C#N)c1ccccc1
inactive: endpoint: mean survival time, dose: 12.5 mg/kg/injection, schedule: Q01DX009 (ip), vehicle: saline with Tween-80 92 % of control | endpoint: mean survival time, dose: 25.0 mg/kg/injection, schedule: Q01DX009 (ip), vehicle: saline with Tween-80 89 % of control | [7] 87 % of control

COc1cccc(OC)c1OC(=O)Nc1c(Cl)cccc1Cl
inactive: [7] 96 % of control | [8] 92 % of control | [9] 105 % of control

Nc1nc(N)c2nc(COc3ccc(C(=O)NC(CCC(=O)O)C(=O)O)cc3)ccc2n1 (stereo unspecified)
inactive: endpoint: mean survival time, dose: 15.63 micrograms/kg/injection, schedule: Q01DX005 (ip), vehicle: sodium bicarbonate 103 % of control and 106 % of control | endpoint: mean survival time, dose: 31.25 micrograms/kg/injection, schedule: Q01DX005 (ip), vehicle: sodium bicarbonate 120 % of control and 107 % of control | endpoint: mean survival time, dose: 62.5 micrograms/kg/injection, schedule: Q01DX005 (ip), vehicle: sodium bicarbonate 113 % of control

O=C1C2CC=CCC2C(=O)C2CC=CCC12 (stereo unspecified)
inactive: [1] 92 % of control | [3] 92 % of control | [5] 101 % of control

Cc1cc(=O)n2cc(Br)ccc2n1
inactive: endpoint: mean survival time, dose: 12.5 mg/kg/injection, schedule: Q01DX001 (ip), vehicle: saline 108 % of control | endpoint: mean survival time, dose: 25.0 mg/kg/injection, schedule: Q01DX001 (ip), vehicle: saline 107 % of control | endpoint: mean survival time, dose: 50.0 mg/kg/injection, schedule: Q01DX001 (ip), vehicle: saline 96 % of control

OCC1(OC2OC(CBr)C(O)C(O)C2O)OC(CBr)C(O)C1O (stereo unspecified)
inactive: [7] 98 % of control | [8] 91 % of control | [9] 95 % of control
